Here are results for five compounds from US20020151876A1, “Devices and methods for management of bone density” (priority 2001, published 2002).

Data set [1] concerns patients. The settings on record: long-term use; cited from earlier work.
Data set [2] has as its system osteoblast-like cells. The settings on record: cited from earlier work.
The subject of data set [3] is patients with Crohn's disease. The settings on record: cited from earlier work.
Data set [4] concerns tumor burden in bone. The settings on record: two separate studies, relatively small number of patients; cited from earlier work.
Data set [5] relates to rabbit model. Put plainly: local response to subcutaneous injection, skin reaction scoring (erythema, eschar, edema, necrosis). The class given is in vivo. As for the experimental part: A test was performed to evaluate the local response to pamidronate sodium following subcutaneous injection into a rabbit model.
The pamidronate sodium was reconstituted with 10 mL of phosphate buffered saline (PBS) to achieve a concentration of 9 mg/mL. The 9 mg/mL. solution was then diluted to achieve a concentration of 0.9 mg/mL.
On the day of the test, the fur on the back of each animal was removed on both sides of the spinal column with electric clippers. A 0.1 mL portion of two concentrations of the sample solution was injected subcutaneously at each of three sites along the spinal column of each of two rabbits. A 0.1 mL portion of PBS was injected subcutaneously at three sites along the other side of the spinal column of the same two rabbits. […] Scoring was at 24 hours, 48 hours, and 72 hours. All of the animals were observed daily for signs of ill health.
The injection sites were examined and scored for any tissue reactions, with results scored according to Table 1.
The average erythema and edema scores for each test article and controls are determined at each scoring interval (24, 48, and 72 hours) for each rabbit.

Turning to `NC(=O)N1c2ccccc2C=Cc2ccccc21` [carbamazepine], the “bone mass in patients” value in data set [1] was “decrease bone mass”. Also, the “proliferation of osteoblast-like cells” value in data set [2] is reported as “directly suppress proliferation”.

As to `NCCCC(O)(P(=O)(O)O)P(=O)(O)O` [alendronate], in data set [3], the safety and tolerability entry is “safe and well tolerated”.

`O=C1NC(=O)C(c2ccccc2)(c2ccccc2)N1` [phenytoin]: the “bone mass in patients” value in data set [1] was “decrease bone mass”. The “proliferation of osteoblast-like cells” value in data set [2] is reported as “directly suppress proliferation”.

Take `O=P(O)(O)C(Cl)(Cl)P(=O)(O)O` [clodronate]: the “tumor burden in bone” value in data set [4] is “decreases tumor burden in bone”.

Turning to `NCCC(O)(P(=O)(O)O)P(=O)(O)O` [pamidronate sodium], the “injection site reaction (in words)” value is given as “no evidence of erythema or edema” in data set [5] (any of the 0.9 mg/mL sites); “Slight erythema” in data set [5] (one 9 mg/mL site on one rabbit, 48 and 72 hours); “Slight erythema” in data set [5] (one of the 9 mg/mL sites, 24 hours, both animals). In addition, the “signs of ill health, daily observation” value in data set [5] (rabbits, throughout the test period (72 hours)) is “remained healthy”.
